Patent EP1247803A2, “Indolinone compounds suitable for modulation of protein kinases” (Sugen, Inc., priority 1996, dated 1998)

Tests used:
[1] = target: T1, FLK-1 receptor (Mus musculus, UniProt P35918); test: FLK-1 ELISA (kinase activity of the FLK-1 receptor in FLK-1/NIH3T3 cells, VEGF stimulated); assay type: cell-based; design: concentration or dose not given beside the values
T1 construct: expressed in transfected cells; host or cells: NIH3T3 C7#3
Method in brief: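 FLK-1-expressing NIH3T3 C7#3 cells, starved overnight in 0.1% FBS medium, were treated with compounds at a 1:200 final dilution (0.5% DMSO) for 2 h at 37 °C, with VEGF stimulation. FLK-1 kinase activity was read by ELISA on anti-rabbit IgG plates using affinity-purified anti-FLK-1 antiserum.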

[2] = target: PDGF-R (Homo sapiens, UniProt P09619); test: PDGF-R ELISA; assay type: cell-based
Excerpt: A PDGF-R ELISA is described in International Patent Publication No. WO 96/40116, published December 19, 1996 by Tang et al.

[3] = test system: MET; test: MET biochemical kinase assay; design: species or system human; concentration or dose not given beside the values
Method in brief: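 Capture ELISA: anti-rabbit Fc coat, rabbit anti-MET cytoplasmic domain pAb, lysate MET captured, washed. Compound + kinase buffer (ATP, divalent metals). Readout anti-pTyr-HRP/TMB, colorimetric.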

T1 sequence (P35918 20-1345): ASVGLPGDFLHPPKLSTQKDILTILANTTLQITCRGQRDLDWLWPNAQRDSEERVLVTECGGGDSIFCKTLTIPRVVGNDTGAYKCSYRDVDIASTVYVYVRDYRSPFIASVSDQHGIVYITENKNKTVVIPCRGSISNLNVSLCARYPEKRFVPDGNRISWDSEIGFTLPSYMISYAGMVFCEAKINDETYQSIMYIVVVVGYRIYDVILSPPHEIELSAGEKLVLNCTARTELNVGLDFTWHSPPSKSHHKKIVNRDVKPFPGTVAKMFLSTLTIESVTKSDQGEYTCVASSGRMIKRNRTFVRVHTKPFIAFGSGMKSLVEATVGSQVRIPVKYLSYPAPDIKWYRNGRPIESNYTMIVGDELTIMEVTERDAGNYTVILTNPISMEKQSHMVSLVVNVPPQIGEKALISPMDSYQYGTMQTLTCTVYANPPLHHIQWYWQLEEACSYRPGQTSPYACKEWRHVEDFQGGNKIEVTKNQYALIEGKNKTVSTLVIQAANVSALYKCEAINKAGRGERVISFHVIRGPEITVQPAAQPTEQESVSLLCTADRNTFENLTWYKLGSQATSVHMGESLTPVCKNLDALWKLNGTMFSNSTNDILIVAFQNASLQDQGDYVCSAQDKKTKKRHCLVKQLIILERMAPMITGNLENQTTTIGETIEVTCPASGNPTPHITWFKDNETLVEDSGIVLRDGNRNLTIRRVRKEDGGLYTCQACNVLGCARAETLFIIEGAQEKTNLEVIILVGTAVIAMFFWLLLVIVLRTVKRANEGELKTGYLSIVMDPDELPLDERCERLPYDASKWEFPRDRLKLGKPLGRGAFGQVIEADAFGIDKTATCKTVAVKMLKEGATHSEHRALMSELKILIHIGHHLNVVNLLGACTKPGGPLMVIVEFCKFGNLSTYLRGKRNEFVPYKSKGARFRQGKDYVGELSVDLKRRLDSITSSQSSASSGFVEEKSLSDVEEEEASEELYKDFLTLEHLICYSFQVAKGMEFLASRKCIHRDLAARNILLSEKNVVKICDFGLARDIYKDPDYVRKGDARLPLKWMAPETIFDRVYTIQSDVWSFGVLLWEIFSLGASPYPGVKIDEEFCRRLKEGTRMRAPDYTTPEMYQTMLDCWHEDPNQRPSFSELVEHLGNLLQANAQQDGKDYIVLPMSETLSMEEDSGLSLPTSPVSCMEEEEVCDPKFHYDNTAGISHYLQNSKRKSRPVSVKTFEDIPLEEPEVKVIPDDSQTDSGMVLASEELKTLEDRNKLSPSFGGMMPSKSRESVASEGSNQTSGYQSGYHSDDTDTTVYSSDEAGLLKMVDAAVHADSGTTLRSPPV
Chain of PDGF-R (P09619 33-1106, species assumed): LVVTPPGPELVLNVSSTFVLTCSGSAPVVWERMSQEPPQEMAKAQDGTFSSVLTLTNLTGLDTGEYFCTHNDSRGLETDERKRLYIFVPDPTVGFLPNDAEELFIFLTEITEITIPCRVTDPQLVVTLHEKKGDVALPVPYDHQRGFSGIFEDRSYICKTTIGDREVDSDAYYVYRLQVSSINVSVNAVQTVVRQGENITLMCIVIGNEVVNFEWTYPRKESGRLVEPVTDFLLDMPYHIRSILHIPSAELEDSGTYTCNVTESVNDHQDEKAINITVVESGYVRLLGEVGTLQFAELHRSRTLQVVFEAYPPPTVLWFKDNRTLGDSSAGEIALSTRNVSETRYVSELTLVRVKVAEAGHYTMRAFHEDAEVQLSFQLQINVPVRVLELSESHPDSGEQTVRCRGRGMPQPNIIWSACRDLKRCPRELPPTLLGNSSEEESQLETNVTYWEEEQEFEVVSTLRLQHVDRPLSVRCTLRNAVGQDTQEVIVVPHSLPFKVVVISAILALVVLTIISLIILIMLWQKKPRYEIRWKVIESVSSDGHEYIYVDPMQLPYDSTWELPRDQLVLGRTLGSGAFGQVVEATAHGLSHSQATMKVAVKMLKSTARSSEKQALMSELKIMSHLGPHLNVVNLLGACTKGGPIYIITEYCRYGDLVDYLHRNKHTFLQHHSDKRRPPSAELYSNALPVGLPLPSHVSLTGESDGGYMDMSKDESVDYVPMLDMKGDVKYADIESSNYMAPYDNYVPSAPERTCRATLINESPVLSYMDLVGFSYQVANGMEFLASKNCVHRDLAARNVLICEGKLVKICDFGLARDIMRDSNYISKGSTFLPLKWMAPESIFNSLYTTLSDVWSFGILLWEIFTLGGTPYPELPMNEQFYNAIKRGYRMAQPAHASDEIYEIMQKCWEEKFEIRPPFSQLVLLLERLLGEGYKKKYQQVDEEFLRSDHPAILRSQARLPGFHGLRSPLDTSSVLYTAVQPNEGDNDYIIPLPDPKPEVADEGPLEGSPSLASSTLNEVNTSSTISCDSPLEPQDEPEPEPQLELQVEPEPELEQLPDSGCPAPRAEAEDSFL

| Structure (SMILES) | Fik Kinase %Inhibition [1] | PDGF Kinase %Inhibition [2] | Met Kinase % Inhibition [3] |
| --- | --- | --- | --- |
| O=C1Nc2c(Br)cc(Br)cc2C1=Cc1cccc(Oc2ccccc2)c1 [10729/A06] | -10.9% | -8.6% | 29.8% |
| O=C1Nc2c(Br)cc(Br)cc2C1=Cc1ccccn1 [10729/A07] | -10.0% | -36.7% | 51.1% |
| O=C1Nc2c(Br)cc(Br)cc2C1=Cc1cccnc1 [10729/A08] | -13.3% | -23.4% | 48.1% |
| O=C1Nc2c(Br)cc(Br)cc2C1=Cc1ccncc1 [10729/A09] | 0.4% | 11.0% | 80.3% |
| O=C1Nc2c(Br)cc(Br)cc2C1=Cc1ccc(N2CCCC2)cc1 [10729/A10] | 0.7% | -12.8% | 34.8% |
| O=C1Nc2c(Br)cc(Br)cc2C1=CC1C=CCCC1 (stereo not drawn) [10729/A11] | 4.9% | -11.7% | 49.9% |
| COc1ccc2ccccc2c1C=C1C(=O)Nc2ccc(I)cc21 [10729/B02] | 13.8% | -10.2% | 77.2% |
| COc1ccc(C=C2C(=O)Nc3ccc(I)cc32)c2ccccc12 [10729/B03] | 11.2% | -9.4% | 57.3% |
| CSc1ccc(C=C2C(=O)Nc3ccc(I)cc32)cc1 [10729/B04] | 0.1% | -22.7% | 43.8% |
| Cc1ccsc1C=C1C(=O)Nc2ccc(I)cc21 [10729/B05] | -5.2% | -25.7% | 51.0% |
| O=C1Nc2ccc(I)cc2C1=Cc1cccc(Oc2ccccc2)c1 [10729/B06] | 2.0% | -19.2% | 61.1% |
| O=C1Nc2ccc(I)cc2C1=Cc1ccccn1 [10729/B07] | -13.4% | -33.2% | 58.2% |
| O=C1Nc2ccc(I)cc2C1=Cc1cccnc1 [10729/B08] | -14.7% | -13.6% | 66.0% |
| O=C1Nc2ccc(I)cc2C1=Cc1ccncc1 [10729/B09] | -16.0% | -6.4% | 47.2% |
| O=C1Nc2ccc(I)cc2C1=Cc1ccc(N2CCCC2)cc1 [10729/B10] | -0.7% | -13.9% | 32.6% |
| O=C1Nc2ccc(I)cc2C1=CC1C=CCCC1 (stereo not drawn) [10729/B11] | 7.8% | 4.2% | 36.6% |
| COc1ccc2ccccc2c1C=C1C(=O)Nc2ccc(Br)c(C)c21 [10729/C02] | 6.0% | 9.1% | 18.2% |
| COc1ccc(C=C2C(=O)Nc3ccc(Br)c(C)c32)c2ccccc12 [10729/C03] | 11.0% | 13.7% | 13.5% |
| CSc1ccc(C=C2C(=O)Nc3ccc(Br)c(C)c32)cc1 [10729/C04] | -2.5% | 4.2% | 20.7% |
| Cc1ccsc1C=C1C(=O)Nc2ccc(Br)c(C)c21 [10729/C05] | 5.8% | -5.6% | 15.5% |
| Cc1c(Br)ccc2c1C(=Cc1cccc(Oc3ccccc3)c1)C(=O)N2 [10729/C06] | 3.8% | 3.1% | 15.2% |

| Structure (SMILES) | Fik Kinase %Inhibition [1] | PDGF Kinase %Inhibition [2] | Met Kinase % Inhibition [3] |
| --- | --- | --- | --- |
| Cc1c(Br)ccc2c1C(=Cc1ccccn1)C(=O)N2 [10729/C07] | -22.4% | -1.8% | 58.4% |
| Cc1c(Br)ccc2c1C(=Cc1cccnc1)C(=O)N2 [10729/C08] | -20.3% | -13.6% | 55.7% |
| Cc1c(Br)ccc2c1C(=Cc1ccncc1)C(=O)N2 [10729/C09] | -26.4% | -34.8% | 60.4% |
| Cc1c(Br)ccc2c1C(=Cc1ccc(N3CCCC3)cc1)C(=O)N2 [10729/C10] | 2.5% | 3.5% | 15.8% |
| Cc1c(Br)ccc2c1C(=CC1C=CCCC1)C(=O)N2 (stereo not drawn) [10729/C11] | 10.4% | -17.4% | 41.3% |
| CNS(=O)(=O)c1ccc2c(c1)C(=Cc1c(OC)ccc3ccccc13)C(=O)N2 [10729/D02] | 12.2% | 15.6% | 31.7% |
| CNS(=O)(=O)c1ccc2c(c1)C(=Cc1ccc(OC)c3ccccc13)C(=O)N2 [10729/D03] | 15.3% | 14.1% | 22.6% |
| CNS(=O)(=O)c1ccc2c(c1)C(=Cc1ccc(SC)cc1)C(=O)N2 [10729/D04] | -5.7% | -12.8% | 33.1% |
| CNS(=O)(=O)c1ccc2c(c1)C(=Cc1sccc1C)C(=O)N2 [10729/D05] | 2.2% | 2.3% | 28.1% |
| CNS(=O)(=O)c1ccc2c(c1)C(=Cc1cccc(Oc3ccccc3)c1)C(=O)N2 [10729/D06] | 0.2% | 2.7% | 30.2% |
| CNS(=O)(=O)c1ccc2c(c1)C(=Cc1ccccn1)C(=O)N2 [10729/D07] | -15.3% | -20.0% | 25.5% |
| CNS(=O)(=O)c1ccc2c(c1)C(=Cc1cccnc1)C(=O)N2 [10729/D08] | -26.2% | -21.1% | 27.6% |
| CNS(=O)(=O)c1ccc2c(c1)C(=Cc1ccncc1)C(=O)N2 [10729/D09] | -9.6% | -12.1% | 34.8% |
| CNS(=O)(=O)c1ccc2c(c1)C(=Cc1ccc(N3CCCC3)cc1)C(=O)N2 [10729/D10] | 4.1% | -11.3% | 36.1% |
| CNS(=O)(=O)c1ccc2c(c1)C(=CC1C=CCCC1)C(=O)N2 (stereo not drawn) [10729/D11] | -2.0% | 0.1% | 18.8% |
| COc1ccc2ccccc2c1C=C1C(=O)Nc2ccc(S(=O)(=O)Nc3ccc(C(F)(F)F)cc3)cc21 [10729/E02] | 26.6% | 28.4% | 11.7% |
| COc1ccc(C=C2C(=O)Nc3ccc(S(=O)(=O)Nc4ccc(C(F)(F)F)cc4)cc32)c2ccccc12 [10729/E03] | 6.9% | 29.2% | 27.5% |
| CSc1ccc(C=C2C(=O)Nc3ccc(S(=O)(=O)Nc4ccc(C(F)(F)F)cc4)cc32)cc1 [10729/E04] | 9.7% | 26.5% | 9.8% |
| Cc1ccsc1C=C1C(=O)Nc2ccc(S(=O)(=O)Nc3ccc(C(F)(F)F)cc3)cc21 [10729/E05] | 46.8% | 29.9% | 13.4% |
| O=C1Nc2ccc(S(=O)(=O)Nc3ccc(C(F)(F)F)cc3)cc2C1=Cc1cccc(Oc2ccccc2)c1 [10729/E06] | 12.1% | 24.7% | -0.7% |
| O=C1Nc2ccc(S(=O)(=O)Nc3ccc(C(F)(F)F)cc3)cc2C1=Cc1ccccn1 [10729/E07] | 4.1% | 29.6% | 21.6% |
